# In patent US20030129189A1, “Tumor necrosis factor-gamma” (priority 1994, published 2003):
# What was measured:
# [1] = tested on: Primary human aterial endothelial; experiment: TNF-gamma activity on primary human arterial endothelial cells; format: cell-based; parameters: key: The numbers of “+” indicate the relative level of activities.; ++: The numbers of “+” indicate the relative level of activities.; +++: The numbers of “+” indicate the relative level of activities.; “−” indicates no detected activity at the concentration range tested
# [2] = tested on: bFGF-induced corneal neovascularization; experiment: Corneal angiogenic assay; format: in vivo, rat
# From the text: Basic FGF (“bFGF”) has been tested in this corneal angiogenic assay in various research laboratories for a variety of purposes. It has been shown that bFGF can induce significant angiogenesis in corneas (e.g., in rabbits, rats and mice). Based on the previous studies, bFGF was used in our study of TNF-gamma as an angiogenic factor to induce the growth of blood vessels in rat corneas.
# An incision, 1-1.5 mm in length, is made in the center of the cornea with a microsurgery scalpel blade.
# Starting at the incision, a micropocket is created between the collagenous layers of the corneal stroma with a Castroviego cyclodialysis spatula. This pocket extends to a point 1-2 mm from the capillary bed at the corneal-scleral limbus.
# bFGF, which is incorporated 1:1 into non-inflammatory Hydron polymer (available from Interferon Sciences, New Brunswick, N.J.), is implanted into the pocket.
# Five or seven days after corneal implantation, corneal blood perfusion with colloidal carbon is performed. Corneas are then harvested, fixed, flattened, mounted and photographed for morphology.
# An image analysis system (IPLab) is used to quantify the corneal angiogenesis. The corneal surface area, which is covered by the new blood vessels, is quantified and used in our current study. After corneal implantation surgery, TNF-gamma, angiostatin or PBS in a volume of 25 microliters was injected into the conjunctival region adjacent to the implantation site. Based on molarities of TNF-gamma and angiostatin, 10 micrograms of TNF-gamma or 5 micrograms of angiostatin were given respectively four times, once a day, during the first four days post-surgery. TNF-gamma and angiostatin were prepared in PBS.
# bFGF was used to induce neovascularization of the cornea from preexisting pericorneal limbal vessels in two different versions of the assay. First, corneas were surgically implanted with hydrogel plugs containing bFGF. […] In a separate study using an alternate version of this assay, both bFGF and treatment protein were co-administered on a nitrocellulose filter disk implanted within the rat corneal stroma. […] In both assays, the surface area of the angiogenic response was quantitated from digital images of treated corneas five days following implantation.
# NF-kappaB in U937 cells = experiment: NF-kappaB-SEAP reporter assay; format: cell-based; conditions: 72 hr
# Method: [Bovine pulmonary artery endothelial cells were incubated with various concentrations of TNF-gamma for 48 hours. The apoptosis was assessed by nuclear staining with Hoechst 33342 fluorescence dye (10 mg/ml).] […] [U937 cells were transfected using lipofectamine (following manufacturer's instruction) with 0.2 mg of reporter plasmid (NF-kappaB-SEAP). The transfected U937 cells were collected and added to the 96-well plate ([…]/well) with various concentrated of TNF-gamma. After Incubation at 37° C. for 72 hr, the NF-kappaB activity was measured with luminometer at absorbance of 450 nm.]
# Consistent with the Northern blot analysis, peripheral blood mononuclear cells (PBMC) and human umbilical vein endothelial cells (HUVEC) express TNF-gamma on the cell surface by immunostaining with antibody to TNF-gamma. […] The cells were incubated for 30 min at 40° C. with antibody (10 mg/ml ) to TNF-gamma to detected expression of TNF-gamma on cell surface, with DR3-Fc or LTbR-Fc (10 mg/ml) for receptor and ligand binding in the binding buffer (HBSS containing 10% BSA, 20 mM HEPES, pH 7.2, 0.02% NaN3). […] Fluorescence was analyzed by a FACscan flow cytometer (Becton Dickinson, Mountain View, Calif.).] […] After incubation at 37° C. for 72 hr, the NF-kB activity was measured with luminometer at absorbance of 450 nm.] […]
substance,measurement,setting,value
TNF-gamma: new member of the tumor necrosis factor family; the term refers to TNF-gamma-alpha and/or TNF-gamma-beta,Differentiation,[1],−?
same,Proliferation,[1],++
same,angiogenic process in bFGF-implanted corneas,"[2]; bFGF (300 ng) implant, conjunctival injection once a day for four days, 10 micrograms TNF-gamma or 5 micrograms angiostatin, seven days after surgery, vs PBS",significantly slowed down the angiogenic process
same,vessel growth in PBS-implanted corneas,[2]; multiple conjunctival injections,no obvious vessel growth
same,NF-kappaB activation,NF-kappaB in U937 cells,induces nuclear factor-kappaB (NF-kappaB)
